Test results taken from PMC10451034, “Highly Efficient Photosensitizers with Molecular Vibrational Torsion for Cancer Photodynamic Therapy” (ACS Central Science, 2023).

Experiments:
[1] = tested on: HepG2 cells; assay: Confocal imaging of cellular uptake, subcellular localization and membrane damage; type: cell-based, human; conditions: for cell membrane damage on illumination: CLSM, illumination 0-4 min; for cellular distribution / Pearson correlation (colocalization) coefficient with MitoTracker Green: HepG2 cells; for cellular distribution: incubated 90 min; for photostability in cells: fluorescence intensity in cells during light irradiation; for Pearson correlation (colocalization) coefficient with MitoTracker Green: mitochondria
Method: In view of QTCy7-R having strong singlet oxygen generation potency and reasonable wavelength, human hepatocellular carcinoma cells were selected for photoactivity experiments in vitro. On account of their low molecular weights and intrinsic positive cationic charge, QTCy7-R could be quickly taken up by cells within 90 min (Figure S19a,b). […] According to our supposition, the enhanced partial cationic charge caused by the introduction of the EWG in QTCy7-Ac or QTCy7-CHO made it easier for them to cling to the cell membrane with negative charge than to cross it.
Next, in order to verify the disruption effect on cell structural integrity of the ^1O2 generation by QTCy7-R under irradiation, JC-1 staining imaging was conducted to monitor the mitochondria membrane potential. […] On the other hand, cell membrane damage caused by the photooxidation of QTCy7-Ac and QTCy7-CHO could be confirmed by a visualized observation. […] Furthermore, the lactate dehydrogenase (LDH) content in cell culture medium was measured to characterize the extent of cell membrane damage.[49] […]
medium (DMEM, Invitrogen) with 10 % fetal bovine serum (Invitrogen) and 1% penicillinstreptomycin. All cells were treated at 37 °C with the humidified atmosphere containing 5% CO2 and 95% air. Before conducting cell imaging experiments, all types of cells were maintained on 35 mm glass-bottom cell dishes for 24 h.
Confocal fluorescence imaging
After culturing the cells in 35 mm glass-bottom cell dishes for 24 h, the DMEM medium was replaced with saline, then QTCy7-R was added (3 μM). The confocal fluorescence imaging was carried out and images were recorded. (λex = 640 nm, λem = 680-780 nm). In the suborganelle localization experiment s, the cells were incubated with 3 μM QTCy7-R for 90 min and then stained with LysoTracker Green DND 26 (200 nM) and MitoTracker Green FM (200 nM), respectively. After fluorescence imaging, colocalization coefficient was analyzed and recorded. (LysoTracker Green DND 26 and MitoTracker Green FM: λex = 488 nm, λem = 500-550 nm). […]

[2] = Oil-water partition coefficient (Log P); type: physicochemical
Method: In order to guarantee the preciseness of the supposition, electrostatic potential (ESP) analysis of the molecular surface was conducted to quantify the surface charge distribution.[48] With a unit positive charge, the surface potential of the molecule was mostly positive. As depicted in Figure 7a, most of the positive electrostatic potential regions on the surface of the molecules were located on the benzothiazole groups in all four compounds, while only a small amount of positive electrostatic potential and negative electrostatic potential are distributed on the benzoquinone group and the oxygen atom, respectively. […] On the contrary, QTCy7-Ph preferred a larger effective surface area at the low surface positive potential region (<55 kcal/mol). In addition, the areas of surface electrostatic potential in QTCy7-Me and QTCy7-Ac were maintained in a median (QTCy7-Ac was partly larger than QTCy7-Me) (Figure 7b). The oil–water partition coefficient (Log P) was also taken into account to study cell uptake. According to Log P (Figure 7c), the introduction of phenyl enhanced the lipophilicity of QTCy7-Ph, resulting a good membrane permeability, whereas the introduction of formyl enhanced the hydrophilicity of QTCy7-CHO, which decreased its cellular uptake capacity. […] This explains why only a small amount of QTCy7-CHO adhered on the membrane surface (Figure 7c).

[3] = UV-vis absorption, fluorescence emission, absolute fluorescence quantum yield and fluorescence lifetime; type: physicochemical; conditions: for Δλ, Stokes shift / λem, maximum emission wavelength / τS, fluorescence lifetime: in dichloromethane; for UV-vis absorption maximum in PBS: phosphate-buffered solution (PBS); for molar extinction coefficient: at absorption peak about 710 nm, DCM
Method: First, the UV–vis absorption and fluorescence emission spectra of the series of compounds were measured and analyzed. […] Concurrently, the Stokes shifts of all four compounds were more than 60 nm (Figure 2a,b and Table 1), which could effectively improve the signal-to-noise ratio (SNR) of fluorescence compared to the ordinary TCy7. The fluorescence lifetimes of all four compounds were within 2 ns, indicating no delayed fluorescence generation (Figure 2c and Table 1). […]
Materials and Instrumentation
All the general chemicals used in this paper are purchased from Energy Chemical Co. and Innochem Chemical Co. unless otherwise specified. All solvents were […]
analytically pure. […]
All the other solvents and reagents used in this study were of analytical grade. All the BALB/c mice were purchased from Liaoning […]
III 500 spectrometers. Absorption and emission spectra for all the compounds were achieved on the Agilent Technologies CARY 60 UV -Vis spectrophotometer and VAEIAN CARY Eclipse fluorescence spectrop hotometer (Serial No. FL0812 -M018), […]
respectively. Unless otherwise specified, all spectroscopic tests were performed in a quartz cell (10×10 mm). Fluorescence quantum yield of all the compounds were measured on the HAMAMATSU absolute fluorescence quantum yield spectrometer (Serial No. C11347). Triplet lifetime of compounds were acquired on LP980 laser flash photolysis spectrometer (Edinburgh Instruments, U.K.). The cell confocal laser scanning microscope (CLSM) images were all obtained by using Olympus FV3000 confocal laser scanning microscope. […]
Figure 4, Figure S6 and Figure S7). The spin-orbital coupling (SOC) values between the S1/S1V and T2 were calculated with ORCA 4.13. Hole-Electron analysis was carried […]
ISC rate constants calculation […]
Triplet lifetime measurements
The triplet life of QTCy7-R was measured by LP980 laser flash photolysis spectrometer (Edinburgh Instruments Ltd.) in combination with a Nd:YAG laser (Surelite I-10, Continuum Electro-Optics, Inc.). The oxygen in the sample was removed by aerating nitrogen for 30 min. The samples (5 μM) were excited by a 610 nm laser pulse (1 Hz, 100 mJ per pulse, fwhm ≈ 7 ns) at 300 K. The triplet state decay kinetics were measured at the maximum absorption wavelengths of each compound.
Fluorescence lifetime and femtosecond time-resolved transient absorption spectra […]
The fluorescence lifetimes and femtosecond time-resolved transient absorption spectra of dyes were recorded on a freshly prepared samples using the time-correlated single photon counting (TCSPC) method (PicoQuant PicoHarp 300) at 300 K. The concentration is 10 μM, solvent is DCM.
Hepatoma carcinoma cells (HepG-2 cells), human mammary carcinoma (MCF-7) and mouse breast cancer cells (4T1) were maintained in Dulbecco’s modified Eagle’s

Structure (SMILES) | cell membrane damage on illumination [1] | cellular distribution [1] | photostability in cells [1] | logP [2] | ΦF, absolute fluorescence quantum yield [3] | Δλ, Stokes shift [3] | λem, maximum emission wavelength [3] | τS, fluorescence lifetime [3] | UV-vis absorption maximum in PBS [3] | Pearson correlation (colocalization) coefficient with MitoTracker Green [1] | molar extinction coefficient [3]
CCOC(=O)C1=C/C(=C\C=C2/Sc3ccccc3N2CC)C(=O)C(/C=C/c2sc3ccccc3[n+]2CC)=C1 [QTCy7-Ac] | formation of distinct bubblelike structures | effectively adhere to the cell membrane | good photostability | 1.41 | 31.4% | 67 nm | 703 nm | 1.97 ns | 610 nm | – | –
CCN1/C(=C/C=C2\C=C(C=O)C=C(/C=C/c3sc4ccccc4[n+]3CC)C2=O)Sc2ccccc21 [QTCy7-CHO] | did not cause severe cell membrane rupture | effectively adhere to the cell membrane | good photostability | 1.17 | 28.0% | 60 nm | 690 nm | 1.82 ns | 552 nm | – | –
CCN1/C(=C/C=C2\C=C(C)C=C(/C=C/c3sc4ccccc4[n+]3CC)C2=O)Sc2ccccc21 [QTCy7-Me] | – | could get inside cells | – | 1.43 | 16.7% | 66 nm | 780 nm | 1.70 ns | 701 nm | 0.92 | approximately 4 × 10^4
CCN1/C(=C/C=C2\C=C(c3ccccc3)C=C(/C=C/c3sc4ccccc4[n+]3CC)C2=O)Sc2ccccc21 [QTCy7-Ph] | – | could get inside cells | – | 1.69 | 17.2% | 72 nm | 783 nm | 1.90 ns | 613 nm | 0.89 | approximately 4 × 10^4
